Results taken from patent US12365705B2, “Epitope tags recognized by specific binders” (NANOTAG BIOTECHNOLOGIES GmbH, priority 2018, dated 2025).

Columns and labels:
[1] = test system: NbALFA^ST (SEQ ID NO: 133); experiment: Off-rate assay: peptide elution of ALFA-tagged shGFP2 fusions from ALFA Selector^ST resin; assay type: binding, Alpaca
Experimental: After washing 4 times with PBS, the beads were suspended in a 10-fold excess of PBS containing 200 μM ALFA^ST peptide (Ac-[sequence]-Amide, SEQ ID NO: 179) and gently mixed at room temperature. At indicated time points, specific elution from the beads was quantified using the GFP fluorescence released into the supernatant. Shown are mean fluorescence values from three independent experiments performed in parallel and standard deviations for each time point. […] C, 10 μl of ALFA Selector^ST resin saturated with either ALFA^ST-shGFP2 (top row) or ALFA^PE-shGFP2 (bottom row) were transferred into 8-well PCR strips. After removing remaining liquid, the beads were incubated with 10 μl of the indicated substances for 60 min at room temperature. Photos were taken after sedimentation of the beads.
20 μl ALFA Selector^ST or ALFA Selector^PE (NanoTag Biotechnologies) was saturated with the respective recombinant target protein. After washing 4× with PBS, the beads were suspended in a 10-fold excess of PBS containing 200 μM free ALFA^ST peptide and mixed at 25° C. Control reactions were carried out without peptide. At indicated time points, specific elution from the beads was quantified using the GFP fluorescence released into the supernatant (Q-Bit 3.0; Thermo-Fischer Scientific). Three independent experiments were performed in parallel. Mean values, standard deviations and exponential fits were calculated using GraphPad Prism 5.0. Photographic pictures were taken upon UV illumination using a Nikon D700 equipped with a 105 mm macro lens (Nikon).

[2] = test system: NbALFA^PE (SEQ ID NO: 134); experiment: Off-rate assay: peptide elution of ALFA^ST-tagged shGFP2 from ALFA Selector^PE resin; assay type: binding, Alpaca; settings: for t1/2: peptide elution from ALFA Selector^PE
Chain of NbALFA^PE (SEQ ID NO: 134) (as listed by the source): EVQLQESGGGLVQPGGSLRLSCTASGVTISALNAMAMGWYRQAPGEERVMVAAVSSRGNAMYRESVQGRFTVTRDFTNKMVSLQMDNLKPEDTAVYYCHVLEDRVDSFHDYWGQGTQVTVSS
Experimental: FIG. 8: Interaction of ALFA^ST-tagged proteins with ALFA Selector^ST and ALFA Selector^PE resins. • A; Sketch of ALFA Selector resins bound to shGFP2-ALFA^ST. In this sketch, the ALFA Selector resin could be ALFA Selector^ST or ALFA Selector^PE. • B and C; Peptide elution from NbALFA-coupled affinity resins. […] To estimate off-rates, the resins were suspended PBS containing an excess of free ALFA^ST peptide and incubated at 25° C. Control reactions were carried out without peptide. At indicated time points, shGFP2 released from the resin was quantified. […] Lines represent fits to a single exponential. Efficient peptide elution of shGFP2-ALFA^ST from ALFA Selector^E was observed already after 15-20 min at room temperature. […] A photo was taken upon UV illumination after 3 h of elution (C). • D; Resistance towards stringent washing steps. ALFA Selector variants described in B were charged with either ALFA^ST-shGFP2 or shGFP2-ALFA^ST and incubated with a 10-fold volume of the indicated substances for 1 h at 25° C. with shaking. Without further washing steps, photos were taken upon UV illumination after sedimentation of the beads. • E; Resistance towards non-physiological pH. Similar to D. Here, however, the resin was washed to remove non-bound material after incubating at indicated pH for 30 min. Photos were taken after re-equilibration in PBS to allow for recovery of the GFP fluorescence.
After washing with PBS, the beads were suspended in a 10-fold excess of PBS containing 200 μM free ALFA^ST peptide and gently mixed at 25° C. Control reactions were carried out without peptide. At indicated time points, specific elution from the beads was quantified using the GFP fluorescence released into the supernatant. Shown are mean fluorescence readings of three experiments as well as standard deviations for each time point. Lines represent fits to a single exponential. Half times are given for peptide elution from ALFA Selector^PE only. […] FIG. 10A recapitulates data shown in FIG. 8B and is repeated here to allow for a direct comparison. Left panels: Sketch illustrating the experimental setup. The ALFA Selector resin could be ALFA Selector^ST or ALFA Selector^PE; middle panels: Experiments performed with ALFA Selector^ST; right panel: Experiments performed with ALFA Selector^PE.
Next, we site-specifically immobilized NbALFA^ST on an agarose-based resin with ultra-low background via a hydrophilic and flexible linker. Binding to the nanobody-coupled resin was analyzed using an ALFA^ST-tagged GFP variant (shGFP2; Frey, S. et al. Surface Properties Determining Passage Rates of Proteins through Nuclear Pores. Cell 174, 202-217.e9 (2018); FIG. 8A, B). As expected, shGFP2-ALFA^ST efficiently and tightly bound to the resulting resin. […]

[3] = property of tag; cited from earlier work
[4] = test system: ALFA^ST-tagged target proteins (ALFA^ST-Vimentin or Tom70-EGFP-ALFA^ST); experiment: Intrabody-based detection in co-transfected COS-7 cells; assay type: cell-based; settings: co-expression in cytoplasm
Description: Grey boxes indicate CDRs 1-3 (AbM definition, SEQ ID NOs: 115-117). • C: COS-7 cells transfected with Tom70-EGFP-ALFA^ST (upper row) or Tom70-EGFP-ALFA^PE (lower row) were fixed with 4% paraformaldehyde. […] First column: FluoTag-X2 anti-ALFA; second column: target detection using the intrinsic EGFP fluorescence; third column: overlay incl. […] Right column: Sketch of ALFA-tagged vimentins detected by fluorescently labeled NbALFA^ST. • E: Intrabody-based detection of ALFA^ST-tagged proteins. COS-7 cells were co-transfected with an NbALFA^ST-mScarlet-I fusion and ALFA^ST_tagged target proteins. Target proteins were detected via EGFP fluorescence (for TOM70-EGFP-ALFA^ST) or immunofluorescence using FluoTag anti-ALFA AbberiorStar635P (for ALFA^ST-FLAG-Vimentin). In parallel, NbALFA^ST-mScarlet-I was detected by the red mScarlet-I fluorescence. Note the excellent co-localization between the target protein (left column) and the mScarlet-I signal (middle column).
We next wanted to know if our NbALFA^ST can also be used as an intrabody. […]

## ALFA^ST-shGFP2: GFP variant shGFP2 with N-terminal ALFA^ST tag
[1]; after 90 minutes competition with 10 column volumes of 200 μM ALFA^ST peptide
  protein remained on the resin: > 95%
[2]; N-terminal ALFA^ST tag
  t1/2: ~0.833 min

## YPYDVPDYA [HA-tag]
[3]
  Water solubility: poor

## shGFP2-ALFA^ST: GFP variant shGFP2 with C-terminal ALFA^ST tag
[1]; after 60 minutes competition with 10 column volumes of 200 μM ALFA^ST peptide
  protein remained on the resin: > 95%
[1]; excess of free ALFA^ST peptide (200 μM)
  peptide elution from ALFA Selector^ST: inefficient even after prolonged incubation
[2]; native conditions, room temperature, competition with free ALFA^ST peptide
  time to efficient release from ALFA Selector^PE: 15 to 20 min
[2]; no free peptide
  washing time over which target protein remained stably bound to ALFA Selector^PE: > 1 h
[2]; C-terminal ALFA^ST tag
  t1/2: ~3 min

B1: NbALFA^ST fused to mScarlet-I: NbALFA^ST fused to red fluorescent protein mScarlet-I, used as intrabody (protein)
chain: MGSGDASDSEVQLQESGGGLVQPGGSLRLSCTASGVTISALNAMAMGWYRQAPGERRVMVAAVSERGNAMYRESVQGRFTVTRDFTNKMVSLQMDNLKPEDTAVYYCHVLEDRVDSFHDYWGQGTQVTVSSEPKTPKPQTSGSTGENVATMVSKGEAVIKEFMRFKVHMEGSMNGHEFEIEGEGEGRPYEGTQTAKLKVTKGGPLPFSWDILSPQFMYGSRAFIKHPADIPDYYKQSFPEGFKWERVMNFEDGGAVTVTQDTSLEDGTLIYKVKLRGTNFPPDGPVMQKKTMGWEASTERLYPEDGVLKGDIKMALRLKDGGRYLADFKTTYKAKKPVQMPGAYNVDRKLDITSHNEDYTVVEQYERSEGRHSTGGMDELYK
modifications: fusion protein
notes: NbALFA^ST fused to red fluorescent protein mScarlet-I, used as intrabody
[4]
  co-localization of mScarlet-I signal with target protein: robustly co-localized
